In US11951094B2, “TLR2 modulator compounds, pharmaceutical compositions and uses thereof” (Axial Therapeutics, Inc., priority 2020, dated 2024):
pEC50: −log10 of the molar value.

target: TLR2 (Homo sapiens, UniProt O60603); test: TLR2 agonist screening assay, HEK-Blue TLR2 reporter cell line (NF-kB-driven SEAP, absorbance at 600 nm); assay type: cell-based; set-up: host or cells: HEK-293 (HEK-Blue TLR2 reporter cell line); conditions: HEK-Blue TLR2 reporter cells, agonist mode; average of all runs (Table 4)
Procedure, shortened: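 Read-out: SEAP colour change, A600, after overnight agonist exposure. Cells: HEK-293 overexpressing TLR2, NF-kB-SEAP reporter, ~40,000/well, plated 16-24 h prior.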

TLR2, sequence (O60603 21-784): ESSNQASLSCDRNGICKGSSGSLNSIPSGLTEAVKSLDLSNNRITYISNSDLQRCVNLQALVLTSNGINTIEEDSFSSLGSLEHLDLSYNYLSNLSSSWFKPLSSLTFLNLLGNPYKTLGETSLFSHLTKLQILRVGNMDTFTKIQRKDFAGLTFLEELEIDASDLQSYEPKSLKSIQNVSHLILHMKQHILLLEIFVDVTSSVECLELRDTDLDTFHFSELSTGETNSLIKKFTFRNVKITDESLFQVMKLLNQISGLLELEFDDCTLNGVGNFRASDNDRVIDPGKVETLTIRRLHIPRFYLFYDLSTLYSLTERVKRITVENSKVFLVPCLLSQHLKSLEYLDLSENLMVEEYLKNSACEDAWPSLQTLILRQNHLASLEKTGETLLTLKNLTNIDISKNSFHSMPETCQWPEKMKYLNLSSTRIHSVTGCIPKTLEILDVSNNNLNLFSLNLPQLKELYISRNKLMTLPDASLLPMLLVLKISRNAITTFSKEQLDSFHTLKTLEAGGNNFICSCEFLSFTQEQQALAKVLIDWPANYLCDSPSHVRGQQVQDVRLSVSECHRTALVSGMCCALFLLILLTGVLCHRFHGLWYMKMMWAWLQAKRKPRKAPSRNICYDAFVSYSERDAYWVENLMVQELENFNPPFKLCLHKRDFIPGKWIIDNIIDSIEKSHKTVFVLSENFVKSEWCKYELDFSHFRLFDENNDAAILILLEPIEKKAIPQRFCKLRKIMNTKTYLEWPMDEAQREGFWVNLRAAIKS

O=C(N[C@H]1C[C@@H]1c1ccccc1)[C@@H]1CN(C(=O)C23CCC(C(=O)N4C[C@@H](C(=O)N[C@H]5C[C@@H]5c5ccccc5)[C@H](C(=O)N[C@H]5C[C@@H]5c5ccccc5)C4)(C2)C3)C[C@H]1C(=O)N[C@H]1C[C@@H]1c1ccccc1 [Compound 144, (3S,3'S,4S,4'S)-1,1′-(bicyclo[2.1.1]hexane-1,4-dicarbonyl)bis(N3,N4-bis((1S,2R)-2-phenylcyclopropyl)pyrrolidine-3,4-dicarboxamide)] and CCCCCCCCCCCCCCC(=O)N[C@@H]1CN(C(=O)c2ccc(C(=O)N3C[C@@H](C(=O)N[C@H]4C[C@@H]4c4ccccc4)[C@H](C(=O)N[C@H]4C[C@@H]4c4ccccc4)C3)cc2)C[C@H]1O [Compound 157, (3S,4S)-1-(4-((3R,4R)-3-hydroxy-4-pentadecanamidopyrrolidine-1-carbonyl)benzoyl)-N3,N4-bis ((1S,2R)-2-phenylcyclopropyl) pyrrolidine-3,4-dicarboxamide] fall in the same range of pEC50: 6.00 to 6.45 for the first, 6.00 to 6.45 for the second.

CCCCCCCCCCCCCCN1C(=O)CNC(=O)[C@@H]1CNC(=O)c1ccc(C(=O)N2C[C@@H](C(=O)N[C@H]3C[C@@H]3c3ccccc3)[C@H](C(=O)N[C@H]3C[C@@H]3c3ccccc3)C2)cc1 [Compound 147, (3S,4S)-1-(4-((((S)-3,6-dioxo-1-tetradecylpiperazin-2-yl)methyl)carbamoyl)benzoyl)-N3,N4-bis((1S,2R)-2-phenylcyclopropyl)pyrrolidine-3,4-dicarboxamide] and CCCCCCCCCCCCCCCN1C[C@H](NC(=O)c2ccc(C(=O)N3C[C@@H](C(=O)N[C@H]4C[C@@H]4c4ccccc4)[C@H](C(=O)N[C@H]4C[C@@H]4c4ccccc4)C3)cc2)CCC1=O [Compound 169, (3S,4S)-1-(4-(((R)-6-oxo-1-pentadecylpiperidin-3-yl)carbamoyl)benzoyl)-N3,N4-bis((1S,2R)-2-phenylcyclopropyl)pyrrolidine-3,4-dicarboxamide] cannot be ordered by pEC50: < 6.00 for the first, < 6.00 for the second.

First: CCCCCCCCCCCCCCNC(=O)[C@H]1CN(C(=O)c2ccc(C(=O)N3C[C@@H](C(=O)N[C@H]4C[C@@H]4c4ccccc4)[C@H](C(=O)N[C@H]4C[C@@H]4c4ccccc4)C3)cc2)CCO1 [Compound 150, (3S,4S)—N3,N4-bis ((1S,2R)-2-phenylcyclopropyl)-1-(4-((R)-2-(tetradecylcarbamoyl)morpholine-4-carbonyl)benzoyl) pyrrolidine-3,4-dicarboxamide]
Second: CCCCCCCCCCCCCCNC(=O)[C@@H]1CN(C(=O)c2ccc(C(=O)N3C[C@@H](C(=O)N[C@H]4C[C@@H]4c4ccccc4)[C@H](C(=O)N[C@H]4C[C@@H]4c4ccccc4)C3)cc2)CCO1 [Compound 151, (3S,4S)—N3,N4-bis((1S,2R)-2-phenylcyclopropyl)-1-(4-((S)-2-(tetradecylcarbamoyl)morpholine-4-carbonyl)benzoyl)pyrrolidine-3,4-dicarboxamide]
The pEC50 of the first is higher: 6.46 to 7.29 for the first, < 6.00 for the second.

First: CCCCCCCCCCCCCCC(=O)N1CCC[C@@H](NC(=O)c2ccc(C(=O)N3C[C@@H](C(=O)N[C@H]4C[C@@H]4c4ccccc4)[C@H](C(=O)N[C@H]4C[C@@H]4c4ccccc4)C3)cc2)C1 [Compound 153, (3S,4S)-1-(4-(((R)-1-pentadecanoylpiperidin-3-yl)carbamoyl)benzoyl)-N3,N4-bis((1S,2R)-2-phenylcyclopropyl)pyrrolidine-3,4-dicarboxamide]
Second: CCCCCCCCCCCCCCC(=O)N[C@@H]1CN(C(=O)c2ccc(C(=O)N3C[C@@H](C(=O)N[C@H]4C[C@@H]4c4ccccc4)[C@H](C(=O)N[C@H]4C[C@@H]4c4ccccc4)C3)cc2)C[C@H]1OC [Compound 154, (3S,4S)-1-(4-((3R,4R)-3-methoxy-4-pentadecanamidopyrrolidine-1-carbonyl)benzoyl)-N3,N4-bis((1S,2R)-2-phenylcyclopropyl) pyrrolidine-3,4-dicarboxamide]
The pEC50 of the first is lower: < 6.00 for the first, 6.00 to 6.45 for the second. The second is the more potent here.

First: CCCCCCCO[C@@H]1CN(C(=O)c2ccc(C(=O)N3C[C@@H](C(=O)N[C@H]4C[C@@H]4c4ccccc4)[C@H](C(=O)N[C@H]4C[C@@H]4c4ccccc4)C3)cc2)C[C@H]1NC(=O)CCCCCC [Compound 155, (3S,4S)-1-(4-((3R,4R)-3-heptanamido-4-(heptyloxy)pyrrolidine-1-carbonyl)benzoyl)-N3,N4-bis((1S,2R)-2-phenylcyclopropyl)pyrrolidine-3,4-dicarboxamide]
Second: CCCCCCCO[C@H]1CN(C(=O)c2ccc(C(=O)N3C[C@@H](C(=O)N[C@H]4C[C@@H]4c4ccccc4)[C@H](C(=O)N[C@H]4C[C@@H]4c4ccccc4)C3)cc2)C[C@@H]1NC(=O)NCCCCC [Compound 156, (3S,4S)-1-(4-((3S,4S)-3-(heptyloxy)-4-(3-pentylureido)pyrrolidine-1-carbonyl)benzoyl)-N3,N4-bis((1S,2R)-2-phenylcyclopropyl)pyrrolidine-3,4-dicarboxamide]
The pEC50 of the first is lower: < 6.00 for the first, 6.46 to 7.29 for the second. The second is the more potent here.

CCCCCCNC(=O)[C@H]1CN(C(c2ccc(C(=O)N3C[C@@H](C(=O)N[C@H]4C[C@@H]4c4ccccc4)[C@H](C(=O)N[C@H]4C[C@@H]4c4ccccc4)C3)cc2)C(F)(F)F)CCN1C(=O)CCCCCC (stereo partly drawn) [Compound 158, (3S,4S)—N3,N4-bis((1S,2R)-2-phenylcyclopropyl)-1-(4-(2,2,2-trifluoro-1-((R)-4-heptanoyl-3-(hexylcarbamoyl)piperazin-1-yl)ethyl)benzoyl)pyrrolidine-3,4-dicarboxamide] and CCCCCCCC(=O)N1CCN(S(=O)(=O)c2ccc(C(=O)N3C[C@@H](C(=O)N[C@H]4C[C@@H]4c4ccccc4)[C@H](C(=O)N[C@H]4C[C@@H]4c4ccccc4)C3)cc2)C[C@@H]1C(=O)NCCCCCC [Compound 161, (3S,4S)-1-(4-(((R)-3-(hexylcarbamoyl)-4-octanoylpiperazin-1-yl)sulfonyl)benzoyl)-N3,N4-bis((1S,2R)-2-phenylcyclopropyl)pyrrolidine-3,4-dicarboxamide] cannot be ordered by pEC50: < 6.00 for the first, < 6.00 for the second.

First: CCCCCCN1C(=O)[C@H](CCCCC)NC(=O)[C@@H]1CNC(=O)c1ccc(C(=O)N2C[C@@H](C(=O)N[C@H]3C[C@@H]3c3ccccc3)[C@H](C(=O)N[C@H]3C[C@@H]3c3ccccc3)C2)cc1 [Compound 159]
Second: CCCCCCCCN1C(=O)N(Cc2ccc(C(=O)N3C[C@@H](C(=O)N[C@H]4C[C@@H]4c4ccccc4)[C@H](C(=O)N[C@H]4C[C@@H]4c4ccccc4)C3)cc2)C[C@H]1C(=O)NCCCCCC [Compound 167, (3S,4S)-1-(4-(((S)-4-(hexylcarbamoyl)-3-octyl-2-oxoimidazolidin-1-yl)methyl)benzoyl)-N3,N4-bis((1S,2R)-2-phenylcyclopropyl)pyrrolidine-3,4-dicarboxamide]
The pEC50 of the first is lower: 6.00 to 6.45 for the first, 7.30 to 10.00 for the second. The second is the more potent here.

First: CCCCCCCCCCCCCCNC(=O)[C@H]1CN(C(=O)c2ccc(C(=O)N3C[C@@H](C(=O)N[C@H]4C[C@@H]4c4ccccc4)[C@H](C(=O)N[C@H]4C[C@@H]4c4ccccc4)C3)cc2)CCN1C(C)=O [Compound 163, (3S,4S)-1-(4-((R)-4-acetyl-3-(tetradecylcarbamoyl)piperazine-1-carbonyl)benzoyl)-N3,N4-bis((1S,2R)-2-phenylcyclopropyl)pyrrolidine-3,4-dicarboxamide]
Second: CCCCCCCCCCCCCCNC(=O)[C@@H]1CN(C(=O)c2cccc(C(=O)N3C[C@@H](C(=O)N[C@H]4C[C@@H]4c4ccccc4)[C@H](C(=O)N[C@H]4C[C@@H]4c4ccccc4)C3)c2)CCN1C(C)=O [Compound 164, (3S,4S)-1-(3-((S)-4-acetyl-3-(tetradecylcarbamoyl)piperazine-1-carbonyl)benzoyl)-N3,N4-bis ((1S,2R)-2-phenylcyclopropyl) pyrrolidine-3,4-dicarboxamide]
The pEC50 of the first is higher: 6.00 to 6.45 for the first, < 6.00 for the second.

CCCCCCCCCCCCCCC(=O)NC1CCN(S(=O)(=O)c2ccc(C(=O)N3C[C@@H](C(=O)N[C@H]4C[C@@H]4c4ccccc4)[C@H](C(=O)N[C@H]4C[C@@H]4c4ccccc4)C3)cc2)CC1 [Compound 165, (3S,4S)-1-(4-((4-pentadecanamidopiperidin-1-yl)sulfonyl)benzoyl)-N3,N4-bis((1S,2R)-2-phenylcyclopropyl)pyrrolidine-3,4-dicarboxamide] and CCCCCCCCCCCCCCC(=O)NC1CCN(C(=O)c2cccc(C(=O)N3C[C@@H](C(=O)N[C@H]4C[C@@H]4c4ccccc4)[C@H](C(=O)N[C@H]4C[C@@H]4c4ccccc4)C3)c2)CC1 [Compound 166, (3S,4S)-1-(3-(4-pentadecanamidopiperidine-1-carbonyl)benzoyl)-N3,N4-bis((1S,2R)-2-phenylcyclopropyl)pyrrolidine-3,4-dicarboxamide] cannot be ordered by pEC50: < 6.00 for the first, < 6.00 for the second.

First: CCCCCCCCN1C(=O)N(Cc2ccc(C(=O)N3C[C@@H](C(=O)N[C@H]4C[C@@H]4c4ccccc4)[C@H](C(=O)N[C@H]4C[C@@H]4c4ccccc4)C3)cc2)C[C@@H]1C(=O)NCCCCCC [Compound 168, (3S,4S)-1-(4-(((R)-4-(hexylcarbamoyl)-3-octyl-2-oxoimidazolidin-1-yl)methyl)benzoyl)-N3,N4-bis((1S,2R)-2-phenylcyclopropyl)pyrrolidine-3,4-dicarboxamide]
Second: CCCCCCCC(=O)N1CCN(S(=O)(=O)c2cccc(C(=O)N3C[C@@H](C(=O)N[C@H]4C[C@@H]4c4ccccc4)[C@H](C(=O)N[C@H]4C[C@@H]4c4ccccc4)C3)c2)C[C@H]1C(=O)NCCCCCC [Compound 170, (3S,4S)-1-(3-(((S)-3-(hexylcarbamoyl)-4-octanoylpiperazin-1-yl)sulfonyl)benzoyl)-N3,N4-bis((1S,2R)-2-phenylcyclopropyl)pyrrolidine-3,4-dicarboxamide]
The pEC50 of the first is higher: 6.46 to 7.29 for the first, < 6.00 for the second. The first is the more potent here.

With CCCCCCCC(=O)N1CCN(S(=O)(=O)c2cccc(C(=O)N3C[C@@H](C(=O)N[C@H]4C[C@@H]4c4ccccc4)[C@H](C(=O)N[C@H]4C[C@@H]4c4ccccc4)C3)c2)C[C@@H]1C(=O)NCCCCCC [Compound 171, (3S,4S)-1-(3-(((R)-3-(hexylcarbamoyl)-4-octanoylpiperazin-1-yl)sulfonyl)benzoyl)-N3,N4-bis((1S,2R)-2-phenylcyclopropyl)pyrrolidine-3,4-dicarboxamide] the pEC50 was < 6.00.
